Experimental data as given in US20240156090A1, “SUSPENSION CONCENTRATE ACYLHYDRAZONE APYRASE INHIBITOR FORMULATION” (Texas Crop Science, priority 2022, published 2024).

Experiments:
Type in all cases: physicochemical
[1] = Chemical stability as a function of pH in PBS (Example 6); conditions: for remaining amount of Compound 1: 5 μM
Method: A working solution of Compound 1 was prepared in dimethyl sulfoxide at a concentration of 500 μM. 2 μL of the working solution and 198 μL of PBS pH 4.5 or PBS pH 7.4 were added into glass vials to achieve a final concentration of 5 μM. The setup was performed in duplicate. Vials were incubated at 37° C. at 60 rpm in a water bath and taken at designated time points of 0, 2, 4, 6 and 24 hours. For each time point, the incubations were terminated with 1000 μL cold acetonitrile containing internal analytical reference standards. Samples were vortexed for 1 minute then centrifuged at RT at 2500 g for 10 minutes. Aliquots of 200 μL of the supernatant were used for LC-MS/MS analysis.

[2] = Solubility of Compound 1 in water
[3] = Long term chemical stability of aqueous suspension concentrate as a function of pH, HPLC (Example 7); conditions: 30 wt % suspension concentrate
Method: Method: An aqueous suspension concentrate was prepared with the following composition: 30 wt % Compound 1, 2.5 wt % tristyrylphenol ethoxylate surfactant, 2.0 wt % ethyleneoxide-propyleneoxide block co-polymeric dispersant, 5.0 wt % propylene glycol freeze protectant, 0.1 wt % silicone oil antifoam, 52.4% distilled water, and after 2 hours of milling were added 8.0 wt % viscosity modifier gel comprising 2.0% xanthan and 1.0% biocide in water. Aliquots of this suspension were taken and adjusted to pH 6, 7 and 8 with respectively 10 wt % sulfuric acid, pH10 borate buffer and 10 wt % sodium hydroxide. The three samples were sub-divided and stored at room temperature (RT, approximately 25° C.) and 38° C. Control samples were stored at 0° C. for reference. Aliquots were withdrawn periodically and diluted in acetonitrile for analysis by HPLC.

remaining amount of Compound 1 ([1]; PBS pH 4.5, 37° C., 0 hr): 100%
remaining amount of Compound 1 ([1]; PBS pH 4.5, 37° C., 2 hr): 62.3%
remaining amount of Compound 1 ([1]; PBS pH 4.5, 37° C., 4 hr): 33.7%
remaining amount of Compound 1 ([1]; PBS pH 4.5, 37° C., 6 hr): 29.2%
remaining amount of Compound 1 ([1]; PBS pH 4.5, 37° C., 24 hr): 3.1%
remaining amount of Compound 1 ([1]; PBS pH 7.4, 37° C., 0 hr): 100%
remaining amount of Compound 1 ([1]; PBS pH 7.4, 37° C., 2 hr): 112.4%
remaining amount of Compound 1 ([1]; PBS pH 7.4, 37° C., 4 hr): 96.2%
remaining amount of Compound 1 ([1]; PBS pH 7.4, 37° C., 6 hr): 97.8%
remaining amount of Compound 1 ([1]; PBS pH 7.4, 37° C., 24 hr): 91.1%
half-life at 5 μM ([1]; mildly acidic conditions (PBS pH 4.5), 37° C., read-out: apparent half-life): > 2 h
estimated half-life of actual degradation in solution ([1]; mildly acidic conditions, corrected for solubility below 5 μM): below one
solubility [2]: < 5 µM
amount of Compound 1 remaining ([3]; pH 6 sample as printed in the last sentence of b183, 38° C., 1 month): 99%
amount of Compound 1 remaining ([3]; pH 6 sample as printed in the last sentence of b183, 38° C., 9 months): 103%
amount of Compound 1 remaining ([3]; pH 6 sample, 38° C., 1 month): 103%
amount of Compound 1 remaining ([3]; pH 6 sample, 38° C., 9 months): 94%
amount of Compound 1 remaining ([3]; pH 6 sample, RT, 1 month): 99%
amount of Compound 1 remaining ([3]; pH 6 sample, RT, 9 months): 86%
amount of Compound 1 remaining ([3]; pH 7 sample, 38° C., 1 month): 104%
amount of Compound 1 remaining ([3]; pH 7 sample, 38° C., 9 months): 89%
amount of Compound 1 remaining ([3]; pH 7 sample, RT, 1 month): 103%
amount of Compound 1 remaining ([3]; pH 7 sample, RT, 9 months): 76%
amount of Compound 1 remaining ([3]; pH 8 sample, RT, 1 month): 99%
amount of Compound 1 remaining ([3]; pH 8 sample, RT, 9 months): 102%
SMILES: C/C(=N\NC(=O)c1cccc(C)c1)c1ccc2ccccc2c1 [Compound 1, (E)-3-methyl-N′-(1-(naphthalen-2-yl)ethylidene)benzohydrazide]
